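Five concentrations, 48 hours, 96-well plates. GI50 is the concentration that inhibits growth by half. TGI: concentration producing complete growth inhibition.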
How the values were obtained:
Experiment in all cases: inhibition of tumour cell growth, NCI panel, 48 h
NCI-H226 lung = system: NCI-H226 lung
NCI-H23 lung = system: NCI-H23 lung
NCI-H460 lung = system: NCI-H460 lung
NCI-H522 lung = system: NCI-H522 lung
OVCAR-3 ovarian = system: OVCAR-3 ovarian
OVCAR-4 ovarian = system: OVCAR-4 ovarian
OVCAR-5 ovarian = system: OVCAR-5 ovarian
OVCAR-8 ovarian = system: OVCAR-8 ovarian
PC-3 prostate = system: PC-3 prostate
RPMI-8226 leukemia = system: RPMI-8226 leukemia
RXF 393 renal = system: RXF 393 renal
SF-268 CNS = system: SF-268 CNS
SF-295 CNS = system: SF-295 CNS
SF-539 CNS = system: SF-539 CNS
SK-MEL-2 melanoma = system: SK-MEL-2 melanoma
SK-MEL-28 melanoma = system: SK-MEL-28 melanoma
SK-MEL-5 melanoma = system: SK-MEL-5 melanoma
SK-OV-3 ovarian = system: SK-OV-3 ovarian
SN12C renal = system: SN12C renal
SNB-19 CNS = system: SNB-19 CNS
SNB-75 CNS = system: SNB-75 CNS
SR leukemia = system: SR leukemia
SW-620 colon = system: SW-620 colon
T-47D breast = system: T-47D breast
TK-10 renal = system: TK-10 renal
U251 CNS = system: U251 CNS
UACC-257 melanoma = system: UACC-257 melanoma
UACC-62 melanoma = system: UACC-62 melanoma
UO-31 renal = system: UO-31 renal

In the case of `N#Cc1c(NC(=O)c2ccc(C(F)(F)F)cc2)sc2c1CCC(O)=C2`, the GI50 (NCI-H226 lung) is reported as 4.03 µM, the TGI (NCI-H226 lung) is reported as 19.2 µM and the GI50 (NCI-H23 lung) is reported as 4.91 µM. The TGI (NCI-H23 lung) was 22 µM, the GI50 (NCI-H460 lung) was 3.53 µM and the TGI (NCI-H460 lung) was 14.2 µM. The GI50 (NCI-H522 lung) was 2.53 µM, the TGI (NCI-H522 lung) was 12 µM and the GI50 (OVCAR-3 ovarian) was 3.24 µM. For the same compound, the TGI (OVCAR-3 ovarian) was 12 µM, the GI50 (OVCAR-4 ovarian) was 7.47 µM and the TGI (OVCAR-4 ovarian) was 35 µM. For the same compound, the GI50 (OVCAR-5 ovarian) was 5.38 µM, the TGI (OVCAR-5 ovarian) was 25 µM and the GI50 (OVCAR-8 ovarian) was 5.71 µM. It also gave a TGI (OVCAR-8 ovarian) of 22.3 µM, a GI50 (PC-3 prostate) of 6.12 µM and a TGI (PC-3 prostate) of over 100 µM. It also gave a GI50 (RPMI-8226 leukemia) of 3.53 µM, a TGI (RPMI-8226 leukemia) of over 100 µM and a GI50 (RXF 393 renal) of 2.38 µM. The TGI (RXF 393 renal) was 12.7 µM, the GI50 (SF-268 CNS) was 3.87 µM and the TGI (SF-268 CNS) was 20.7 µM. It also gave a GI50 (SF-295 CNS) of 4.08 µM, a TGI (SF-295 CNS) of 16.7 µM and a GI50 (SF-539 CNS) of 2.1 µM. The TGI (SF-539 CNS) was 6.92 µM, the GI50 (SK-MEL-2 melanoma) was 3.21 µM and the TGI (SK-MEL-2 melanoma) was 11.7 µM. For the same compound, the GI50 (SK-MEL-28 melanoma) was 6.17 µM, the TGI (SK-MEL-28 melanoma) was 25.8 µM and the GI50 (SK-MEL-5 melanoma) was 2.71 µM. It also gave a TGI (SK-MEL-5 melanoma) of 9.4 µM, a GI50 (SK-OV-3 ovarian) of 4.36 µM and a TGI (SK-OV-3 ovarian) of 20 µM. For the same compound, the GI50 (SN12C renal) was 4.08 µM, the TGI (SN12C renal) was 16.5 µM and the GI50 (SNB-19 CNS) was 7.46 µM. For the same compound, the TGI (SNB-19 CNS) was 24.3 µM, the GI50 (SNB-75 CNS) was 1.12 µM and the TGI (SNB-75 CNS) was 6.1 µM. It also gave a GI50 (SR leukemia) of 1.48 µM, a TGI (SR leukemia) of over 100 µM and a GI50 (SW-620 colon) of 3.13 µM. For the same compound, the TGI (SW-620 colon) was 14 µM, the GI50 (T-47D breast) was 3.13 µM and the TGI (T-47D breast) was 24.9 µM. It also gave a GI50 (TK-10 renal) of 13.3 µM, a TGI (TK-10 renal) of 50.3 µM and a GI50 (U251 CNS) of 4.13 µM. For the same compound, the TGI (U251 CNS) was 16.5 µM, the GI50 (UACC-257 melanoma) was 6.64 µM and the TGI (UACC-257 melanoma) was 29.4 µM. The GI50 (UACC-62 melanoma) was 3.23 µM, the TGI (UACC-62 melanoma) was 16.2 µM and the GI50 (UO-31 renal) was 2.12 µM. It also gave a TGI (UO-31 renal) of 16.4 µM.

From PubChem BioAssay (NCI)
